This passage reports solubility results from the OPERA property sets (Mansouri et al. 2018).

In brackets after ≈: the same amount, converted by molar mass.

Conditions in one data set: not given
For the compound `O=S(=O)(CCCl)CCOCCS(=O)(=O)CCCl`, the solubility came out at 11.5 mM (≈ 3750 µg/mL).
Same read-out and setting: for `Cn1c(C(N)=O)c(C(N)=O)c2ccccc21` the value was 15.2 mM (≈ 3300 µg/mL); for `CCCc1cc(F)ccc1O`, 13 mM (≈ 2000 µg/mL).
For `NNC(=O)[C@H](O)[C@@H](O)[C@H](O)[C@H](O)CO`, the solubility came to 317 mM (≈ 66700 µg/mL).
The same measure, in the same setting: as for `O=C(O)C1CCNCC1C(=O)O` (stereo not drawn), the figure is 289 mM (≈ 50000 µg/mL); as for `Cn1cnc2nc(Cl)nc(Cl)c21`, 70.4 mM (≈ 14300 µg/mL).
As to `Cn1cnc2nc(Cl)nc(NN)c21`, the solubility worked out at 72 mM (≈ 14300 µg/mL).
On the same count and under the same terms, for `CCN(CC)C(=O)N(CC)CC` the value was 232 mM (≈ 40000 µg/mL); for `NC(=O)C=Cc1ccccc1[N+](=O)[O-]`, 52 mM (≈ 10000 µg/mL).
Still for that read-out and setting: for `O=C1CNC(=O)C(Cc2ccc(O)cc2)N1` (stereo not drawn) the value was 90.8 mM (≈ 20000 µg/mL); for `Nc1ccc2snnc2c1`, 49.6 mM (≈ 7500 µg/mL); for `CCC(CC)(S(=O)(=O)CC)S(=O)(=O)CC`, 8.66 mM (≈ 2220 µg/mL).
In turn, `CCOCCOC(=O)CCCCCCCCC(=O)OCCOCC` showed a solubility of 0.635 mM (≈ 220 µg/mL).
On the same count and under the same terms, for `COCC(=O)c1ccccc1` the value was 173 mM (≈ 26000 µg/mL); for `CC(=O)OC(C)C#N` (stereo not drawn), 1770 mM (≈ 200000 µg/mL).
Still for that read-out and setting: for `CNCl` the value was 1910 mM (≈ 125000 µg/mL); for `CCOC(=O)c1c(C(=O)O)ccc(OC)c1OC`, 5.58 mM (≈ 1420 µg/mL).
`CC(C)C=CCC(=O)O` had a solubility of 71 mM (≈ 9100 µg/mL).
Still for that read-out and setting: as for `Oc1ccc(Sc2ccccc2)cc1`, the figure is 1.68 mM (≈ 340 µg/mL).
Still for that read-out and setting: for `CCCCCc1ccc(O)cc1O` the value was 11.1 mM (≈ 2000 µg/mL); for `CCS(=O)(=O)CCSP(=S)(OC)OC`, 2.87 mM (≈ 800 µg/mL); for `CCCC(Br)C(=O)NC(N)=O` (stereo not drawn), 37.3 mM (≈ 8330 µg/mL).
Same read-out and setting: as for `O=C1CN(CO)C(=O)CN1CO`, the figure is 383 mM (≈ 66700 µg/mL).
On to `NC(=O)C[C@H](NC(=O)CCl)C(=O)O`, for which the solubility was determined as 479 mM (≈ 100000 µg/mL).
Still for that read-out and setting: for `COC(=O)CCCCCCCCC(=O)OC` the value was 0.521 mM (≈ 120 µg/mL); for `CCC(Cl)(CC)C(N)=O`, 93.6 mM (≈ 14000 µg/mL); for `O=C(O)/C=C/CBr`, 182 mM (≈ 30000 µg/mL).
On the same count and under the same terms, for `O=C(O)C(=O)C(c1ccccc1)c1ccccc1` the value was 4.62 mM (≈ 1110 µg/mL); for `CCC(CC)(C(N)=O)C(N)=O`, 63.2 mM (≈ 10000 µg/mL); for `O=C(c1ccco1)N(O)c1ccccc1`, 0.64 mM (≈ 130 µg/mL).
On the same count and under the same terms, as for `C=CCOC(CO)CO`, the figure is 3030 mM (≈ 400000 µg/mL).

Still in this data set, the particulars now being: 20 °C.
With `Cc1csc(=S)n1CC(=O)O`, the solubility stood at 10.9 mM (≈ 2060 µg/mL).
The same measure, in the same setting: for `CCOc1nsc(N)n1` the value was 223 mM (≈ 32400 µg/mL); for `CC(NC(N)=O)C(=O)O` (stereo not drawn), 133 mM (≈ 17600 µg/mL); for `O=C1COc2ccccc2N1`, 2.68 mM (≈ 400 µg/mL).
Same read-out and setting: as for `Nc1ncc2nccnc2n1`, the figure is 5.04 mM (≈ 741 µg/mL).
On the same count and under the same terms, for `O=c1ccc(I)c[nH]1` the value was 18.1 mM (≈ 4000 µg/mL).
Take `CC(=O)/C(=N/O)c1ccccc1`: the solubility stood at 4.29 mM (≈ 700 µg/mL).
Same read-out and setting: for `Cc1cc(C(O)(c2ccc(N)cc2)c2ccc(N)cc2)ccc1N` the value was 0.939 mM (≈ 300 µg/mL); for `Nc1c(S(=O)(=O)O)cc(S(=O)(=O)O)c2ccc(S(=O)(=O)O)cc12`, 480 mM (≈ 184000 µg/mL).
The same measure, in the same setting: for `CNc1ncc2nccnc2n1` the value was 19.4 mM (≈ 3130 µg/mL); for `NC(=O)NC(Cc1ccccc1)C(=O)O` (racemic), 8.02 mM (≈ 1670 µg/mL); for `O=C(O)C(Br)=C(Br)Br`, 43.7 mM (≈ 13500 µg/mL).
In the case of `O=S(CCCl)CCCl`, the solubility was found to be 68.5 mM (≈ 12000 µg/mL).
Same read-out and setting: as for `CC(=O)N[C@@H](CSc1ccc(Cl)c(Cl)c1)C(=O)O`, the figure is 1.3 mM (≈ 400 µg/mL); as for `O=CC(O)C(O)C(O)[C@H](O)C(O)CO` (stereo in doubt), 476 mM (≈ 100000 µg/mL).
`O=C(O)c1ccc(Cl)o1` gave a solubility of 19.1 mM (≈ 2800 µg/mL).
The same measure, in the same setting: as for `O=C(O)c1ccccc1C(=O)c1ccc(Cl)cc1`, the figure is 1.92 mM (≈ 500 µg/mL); as for `Cc1nc2c(=O)[nH]c(=O)n(C)c2nc1C`, 7.71 mM (≈ 1590 µg/mL).
The same measure, in the same setting: for `CC(C)Cc1ncc[nH]1` the value was 89.4 mM (≈ 11100 µg/mL); for `CN1C(=O)COc2ccccc21`, 7.17 mM (≈ 1170 µg/mL).
The compound `CC(C)(NC(N)=O)C(=O)O` yielded a solubility of 68.4 mM (≈ 10000 µg/mL).
Same read-out and setting: as for `Oc1ccc2c(c1)Sc1ccccc1N2`, the figure is 2.66 mM (≈ 573 µg/mL).
As to `CC1(C)C2CCC1(C)C(N)(C(=O)O)C2` (stereo not drawn), the solubility is 25.3 mM (≈ 5000 µg/mL).
Turning to `O=[N+]([O-])Cc1ccc2ccccc2n1`, the solubility was determined as 8.82 mM (≈ 1660 µg/mL).
On the same count and under the same terms, as for `O=c1cccc2[nH]ccnc1-2`, the figure is 45 mM (≈ 6580 µg/mL); as for `NNC(N)=S`, 110 mM (≈ 10000 µg/mL).
Consider `Cc1ncc2nccnc2n1`, for which the solubility worked out at 760 mM (≈ 111000 µg/mL).
Turning to `CC(C)(O)CC(C)(O)c1cccc2ccccc12` (stereo not drawn), the solubility came out at 0.573 mM (≈ 140 µg/mL).
`NC(=O)NC(=O)C=CC(=O)O` came in with a solubility of 12 mM (≈ 1900 µg/mL).
Turning to `O=C(O)c1cc(Br)co1`, the solubility was found to be 65.4 mM (≈ 12500 µg/mL).
Still for that read-out and setting: as for `NNC(=O)c1cccnc1`, the figure is 729 mM (≈ 100000 µg/mL); as for `CC(C)(OC1CCCCC1)C(=O)O`, 83.2 mM (≈ 15500 µg/mL); as for `CCC(C)(O)C(O)c1ccccc1` (stereo not drawn), 18.9 mM (≈ 3400 µg/mL).
The same measure, in the same setting: for `NCCCCCCNCCCCCCCCCCC(=O)O` the value was 4.99 mM (≈ 1500 µg/mL); for `NC1=NC2=NC=NC2C(C(F)(F)F)=N1` (stereo not drawn), 0.733 mM (≈ 149 µg/mL).
In turn, `CC(C)OC(=O)c1c(C(=O)O)cccc1[N+](=O)[O-]` registered a solubility of 3.24 mM (≈ 820 µg/mL).
On the same count and under the same terms, as for `O=c1cc[nH]cn1`, the figure is 3850 mM (≈ 370000 µg/mL).
